Earlier results in US9668986B2, “Ophthalmic, intra-articular or intravesical preparations containing N-acyl-ethanolamines” (EPITECH GROUP S.R.I., priority 2014, dated 2017).

Legend:
[1] = biological target: cannabinoid receptors CB1 (Homo sapiens, UniProt P21554)
CB2 = CB2 (Homo sapiens, UniProt P34972)
Chain of CB2 (P34972 whole entry, species assumed): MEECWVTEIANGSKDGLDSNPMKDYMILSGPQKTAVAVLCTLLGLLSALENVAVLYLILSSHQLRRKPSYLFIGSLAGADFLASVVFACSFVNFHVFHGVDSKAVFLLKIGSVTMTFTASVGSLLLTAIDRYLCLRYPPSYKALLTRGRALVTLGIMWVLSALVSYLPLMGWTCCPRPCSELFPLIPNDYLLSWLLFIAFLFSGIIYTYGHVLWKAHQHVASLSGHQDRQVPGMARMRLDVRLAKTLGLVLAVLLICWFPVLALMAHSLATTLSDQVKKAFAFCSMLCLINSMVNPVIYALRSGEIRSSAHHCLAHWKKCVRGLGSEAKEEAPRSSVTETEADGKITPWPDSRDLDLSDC

Chain of cannabinoid receptors CB1 (P21554 whole entry): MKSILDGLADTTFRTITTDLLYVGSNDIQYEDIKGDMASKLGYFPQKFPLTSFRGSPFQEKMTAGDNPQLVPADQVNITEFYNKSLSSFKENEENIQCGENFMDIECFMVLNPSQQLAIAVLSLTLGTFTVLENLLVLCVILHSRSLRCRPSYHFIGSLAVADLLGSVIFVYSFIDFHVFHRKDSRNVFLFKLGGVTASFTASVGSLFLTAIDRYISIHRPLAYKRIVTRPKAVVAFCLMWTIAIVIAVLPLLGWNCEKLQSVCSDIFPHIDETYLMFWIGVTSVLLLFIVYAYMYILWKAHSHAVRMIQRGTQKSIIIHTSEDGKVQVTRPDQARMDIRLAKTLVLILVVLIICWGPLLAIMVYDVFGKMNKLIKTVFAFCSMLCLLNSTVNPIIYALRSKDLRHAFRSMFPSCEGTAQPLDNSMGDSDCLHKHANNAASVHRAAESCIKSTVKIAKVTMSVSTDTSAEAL

## CCCCCCCCCCCCCCCC(=O)NCCO [PEA, N-palmitoylethanolamine]
[1]
  affinity for CB1: poor affinity
other
  water solubility: not water-soluble
CB2
  affinity for CB2: poor affinity
